Patent US20210221812A1, “MATRINE a-KETOAMINE COMPOUNDS, PREPARATION METHOD THEREFOR AND USE THEREOF” (SHANGHAI XINGYE PHARMACEUTICAL TECHNOLOGY CO., LTD, priority 2018, published 2021)

tested on: MGC-803 cells; assay: MTT tumor cell growth inhibition, MGC-803; assay type: cell-based; details: Homo sapiens, 48 h, read-out: Tumors growth-inhibitory activity (IC50) MGC-803
Experimental: (§1) Using MTT method to determine the growth inhibition activity of the matrine compounds on Lovo, MGC-803, Mia-paca2, HpeG-2, A549, k562, and Panc-1 cells in vitro. Logarithmic growth phase of Lovo, MGC-803, Mia-paca2, HpeG-2, A549, k562, Panc-1 cells were inoculated into 96-well plates (purchased from Institute of Biochemical Cells, Chinese Academy of Sciences, and cultured according to conventional tumor cell culture methods) at a density of 4×10^4/mL and 180 μL/well; after the cells adhered to the wall, 20 μL of drug solution was added to each well and matined the final drug concentrations were 0.1 μM, 1 μM, 10 μM, 50 μM, 100 μM respectively. After 48 h, 5 mg/mL MTT solution was added (20 μL/well) and maintained in a CO2 incubator for 3-4 h. After that, discarding the supernatant carefully, and DMSO was added (200 μL/well) when the residual liquid was air-dried, and shook for 0.5-1 h until the residual crystals was dissolved. The absorbance OD was measured at 492 nm by a microplate reader. GraphPad Prism 5 software was used to calculate the IC50 value.

Row | IC50 | SMILES
1 | 50 to 100 µM | O=C1c2cccc(C(F)(F)F)c2C(=O)N1C1CC[C@@H]2[C@H]3CCCN4CCC[C@@H](CN2C1=O)[C@@H]34 (some centres unmarked) [GJD 07]
2 | 50 to 100 µM | Nc1cccc2c1C(=O)N(C1CC[C@@H]3[C@H]4CCCN5CCC[C@@H](CN3C1=O)[C@@H]45)C2=O (some centres unmarked) [GJD 02]

tested on: Panc-1 cells; assay: MTT tumor cell growth inhibition, Panc-1; assay type: cell-based; details: Homo sapiens, 48 h, read-out: Tumors growth-inhibitory activity (IC50) Panc-1
Experimental: as §1

Row | IC50 | SMILES
3 | 50 to 100 µM | O=C1c2cccc(C(F)(F)F)c2C(=O)N1C1CC[C@@H]2[C@H]3CCCN4CCC[C@@H](CN2C1=O)[C@@H]34 (some centres unmarked) [GJD 07]
4 | < 50 µM | Nc1cccc2c1C(=O)N(C1CC[C@@H]3[C@H]4CCCN5CCC[C@@H](CN3C1=O)[C@@H]45)C2=O (some centres unmarked) [GJD 02]

tested on: HpeG-2 cells; assay: MTT tumor cell growth inhibition, HpeG-2; assay type: cell-based; details: 48 h, read-out: Tumors growth-inhibitory activity (IC50) HpeG-2
Experimental: as §1

Row | IC50 | SMILES
5 | 50 to 100 µM | O=C1c2cccc(C(F)(F)F)c2C(=O)N1C1CC[C@@H]2[C@H]3CCCN4CCC[C@@H](CN2C1=O)[C@@H]34 (some centres unmarked) [GJD 07]
6 | < 50 µM | Nc1cccc2c1C(=O)N(C1CC[C@@H]3[C@H]4CCCN5CCC[C@@H](CN3C1=O)[C@@H]45)C2=O (some centres unmarked) [GJD 02]

tested on: Lovo cells; assay: Anti-tumor activity of NK cells activated by compounds, Lovo (CFSE/PI flow cytometry); assay type: cell-based; details: Homo sapiens, tumor cells treated with 20 μM compound 48 h, then mixed with NK cells 5:1 for 4 hours, CFSE+PI+ tumor cells, read-out: Lovo inhibition rate (%)
Experimental: (§2) Logarithmic growth phase of Lovo, HpeG-2, A549, k562, Panc-1 cells were collected and seeded in a 6-well plate at a density of 5×10^5/mL and 2 mL/well separately. The experimental group was treated with 20 μM final drug concentration of GJDx compounds, and the control group was treated with an equal volume of RPMI1640 medium. The groups were cultured at 37° C., saturated humidity, 5% CO2 for 48 h. After that, the cells of each group were collected, centrifuged and the supernatant was removed and resuspended in PBS at a density of 1×10^6/mL. Then 2 μL of CFSE stock solution (final concentration was 10 μM) was added into the cell suspension per 1 mL and cultured at 37° C. with 5% CO2 for 30 min, and then added 5-10 times of the volume of 4° C. pre-chilled RPM 1640 complete medium, and incubated on ice for 5 minutes, discarded the supernatant by centrifugation at 4° C., and wash the cells with fresh medium for 3 times. After that, mixing the labeled tumor cells and NK cells (the NK cell culture medium was α-MEM contained 1.5 g/L sodium bicarbonate, 12.5% fetal bovine serum, and 12.5% horse serum) according to the ratio of 5:1, the mixture cells was collected and washed with flow buffer twice after incubated for 4 hours, then 50 μg/mL PI was added, and incubated at room temperature for 15 minutes in the dark, and finally testing the percentage of CFSE^+PI^+ tumor cells on the flow cytometer.

Row | SMILES | inhibition at 20 µM
7 | O=C1c2cccc(C(F)(F)F)c2C(=O)N1C1CC[C@@H]2[C@H]3CCCN4CCC[C@@H](CN2C1=O)[C@@H]34 (some centres unmarked) [GJD 07] | > 50%
8 | Nc1cccc2c1C(=O)N(C1CC[C@@H]3[C@H]4CCCN5CCC[C@@H](CN3C1=O)[C@@H]45)C2=O (some centres unmarked) [GJD 02] | > 50%

tested on: HpeG-2 cells; assay: Anti-tumor activity of NK cells activated by compounds, HpeG-2 (CFSE/PI flow cytometry); assay type: cell-based; details: tumor cells treated with 20 μM compound 48 h, then mixed with NK cells 5:1 for 4 hours; CFSE+PI+ tumor cells; read-out: HpeG-2 inhibition rate (%)
Experimental: as §2

Row | SMILES | inhibition at 20 µM
9 | O=C1c2cccc(C(F)(F)F)c2C(=O)N1C1CC[C@@H]2[C@H]3CCCN4CCC[C@@H](CN2C1=O)[C@@H]34 (some centres unmarked) [GJD 07] | > 50%
10 | Nc1cccc2c1C(=O)N(C1CC[C@@H]3[C@H]4CCCN5CCC[C@@H](CN3C1=O)[C@@H]45)C2=O (some centres unmarked) [GJD 02] | > 50%

tested on: k562 cells; assay: MTT tumor cell growth inhibition, k562; assay type: cell-based; details: Homo sapiens, 48 h, read-out: Tumors growth-inhibitory activity (IC50) k562
Experimental: as §1

Row | IC50 | SMILES
11 | 50 to 100 µM | O=C1c2cccc(C(F)(F)F)c2C(=O)N1C1CC[C@@H]2[C@H]3CCCN4CCC[C@@H](CN2C1=O)[C@@H]34 (some centres unmarked) [GJD 07]
12 | < 50 µM | Nc1cccc2c1C(=O)N(C1CC[C@@H]3[C@H]4CCCN5CCC[C@@H](CN3C1=O)[C@@H]45)C2=O (some centres unmarked) [GJD 02]

tested on: TNF-α; assay: TNF-α activity inhibiting assay (LPS-stimulated peripheral blood, ELISA); assay type: cell-based, human; details: Homo sapiens, compound 20 μM, LPS 10 ng/mL, 6 hours, diluted peripheral blood of healthy volunteers, read-out: TNF-α inhibition rate (%)
Experimental: Methods: Peripheral blood from healthy volunteers was collected with EDTA anticoagulant tubes. After being diluted 5-fold with 1640 medium (Gibco, USA), the blood was added to 96-well cell culture plates (Costar, USA) and then treated with 10 μL solution of the compound of general formula (I) of the present invention in DMSO (Sigma, USA), the final concentration of the compound was 20 μM with the final concentration of DMSO was 0.2%. After incubation for 60 minutes in an incubator at 37° C. under 5% CO2, 10 μL LPS (Sigma, USA) was added to the reaction system, and the final concentration was 10 ng/mL. After further culturing for 6 hours in the incubator at 37° C. under 5% CO2, the supernatant was collected. The content of TNF-α was determined by ELISA (BD Biosciences, USA). Absorbance was detected at OD450 nm with a microplate reader, with OD 650 nm as reference. The control, a solution containing 0.2% DMSO medium, was as 0% inhibition. Raw data and standard curves were recorded. The four-parameter drug inhibition curve was plotted by XL-fit software and the inhibition rate of each compound was calculated.

Row | SMILES | inhibition at 20 µM
13 | O=C1c2cccc(C(F)(F)F)c2C(=O)N1C1CC[C@@H]2[C@H]3CCCN4CCC[C@@H](CN2C1=O)[C@@H]34 (some centres unmarked) [GJD 07] | > 50%
14 | Nc1cccc2c1C(=O)N(C1CC[C@@H]3[C@H]4CCCN5CCC[C@@H](CN3C1=O)[C@@H]45)C2=O (some centres unmarked) [GJD 02] | > 50%

tested on: Mia-paca2 cells; assay: MTT tumor cell growth inhibition, Mia-paca2; assay type: cell-based; details: Homo sapiens, MIA PaCa-2, 48 h, read-out: Tumors growth-inhibitory activity (IC50) Mia-paca2
Experimental: as §1

Row | IC50 | SMILES
15 | 50 to 100 µM | O=C1c2cccc(C(F)(F)F)c2C(=O)N1C1CC[C@@H]2[C@H]3CCCN4CCC[C@@H](CN2C1=O)[C@@H]34 (some centres unmarked) [GJD 07]
16 | 50 to 100 µM | Nc1cccc2c1C(=O)N(C1CC[C@@H]3[C@H]4CCCN5CCC[C@@H](CN3C1=O)[C@@H]45)C2=O (some centres unmarked) [GJD 02]

tested on: Panc-1 cells; assay: Anti-tumor activity of NK cells activated by compounds, Panc-1 (CFSE/PI flow cytometry); assay type: cell-based; details: Homo sapiens, tumor cells treated with 20 μM compound 48 h, then mixed with NK cells 5:1 for 4 hours, CFSE+PI+ tumor cells, read-out: Panc-1 inhibition rate (%)
Experimental: as §2

Row | SMILES | inhibition at 20 µM
17 | O=C1c2cccc(C(F)(F)F)c2C(=O)N1C1CC[C@@H]2[C@H]3CCCN4CCC[C@@H](CN2C1=O)[C@@H]34 (some centres unmarked) [GJD 07] | > 50%
18 | Nc1cccc2c1C(=O)N(C1CC[C@@H]3[C@H]4CCCN5CCC[C@@H](CN3C1=O)[C@@H]45)C2=O (some centres unmarked) [GJD 02] | > 50%

tested on: k562 cells; assay: Anti-tumor activity of NK cells activated by compounds, k562 (CFSE/PI flow cytometry); assay type: cell-based; details: Homo sapiens, tumor cells treated with 20 μM compound 48 h, then mixed with NK cells 5:1 for 4 hours, CFSE+PI+ tumor cells, read-out: k562 inhibition rate (%)
Experimental: as §2

Row | SMILES | inhibition at 20 µM
19 | O=C1c2cccc(C(F)(F)F)c2C(=O)N1C1CC[C@@H]2[C@H]3CCCN4CCC[C@@H](CN2C1=O)[C@@H]34 (some centres unmarked) [GJD 07] | > 50%
20 | Nc1cccc2c1C(=O)N(C1CC[C@@H]3[C@H]4CCCN5CCC[C@@H](CN3C1=O)[C@@H]45)C2=O (some centres unmarked) [GJD 02] | > 50%

tested on: A549 cells; assay: MTT tumor cell growth inhibition, A549; assay type: cell-based; details: Homo sapiens, 48 h, read-out: Tumors growth-inhibitory activity (IC50) A549
Experimental: as §1

Row | IC50 | SMILES
21 | > 100 µM | O=C1c2cccc(C(F)(F)F)c2C(=O)N1C1CC[C@@H]2[C@H]3CCCN4CCC[C@@H](CN2C1=O)[C@@H]34 (some centres unmarked) [GJD 07]
22 | 50 to 100 µM | Nc1cccc2c1C(=O)N(C1CC[C@@H]3[C@H]4CCCN5CCC[C@@H](CN3C1=O)[C@@H]45)C2=O (some centres unmarked) [GJD 02]

tested on: A549 cells; assay: Anti-tumor activity of NK cells activated by compounds, A549 (CFSE/PI flow cytometry); assay type: cell-based; details: Homo sapiens, tumor cells treated with 20 μM compound 48 h, then mixed with NK cells 5:1 for 4 hours, CFSE+PI+ tumor cells, read-out: A549 inhibition rate (%)
Experimental: as §2

Row | SMILES | inhibition at 20 µM
23 | O=C1c2cccc(C(F)(F)F)c2C(=O)N1C1CC[C@@H]2[C@H]3CCCN4CCC[C@@H](CN2C1=O)[C@@H]34 (some centres unmarked) [GJD 07] | < 50%
24 | Nc1cccc2c1C(=O)N(C1CC[C@@H]3[C@H]4CCCN5CCC[C@@H](CN3C1=O)[C@@H]45)C2=O (some centres unmarked) [GJD 02] | > 50%

tested on: Lovo cells; assay: MTT tumor cell growth inhibition, Lovo; assay type: cell-based; details: Homo sapiens, 48 h, read-out: Tumors growth-inhibitory activity (IC50) Lovo
Experimental: as §1

Row | IC50 | SMILES
25 | < 50 µM | O=C1c2cccc(C(F)(F)F)c2C(=O)N1C1CC[C@@H]2[C@H]3CCCN4CCC[C@@H](CN2C1=O)[C@@H]34 (some centres unmarked) [GJD 07]
26 | < 50 µM | Nc1cccc2c1C(=O)N(C1CC[C@@H]3[C@H]4CCCN5CCC[C@@H](CN3C1=O)[C@@H]45)C2=O (some centres unmarked) [GJD 02]
